Values joined by “and” are separate entries in the source; they are usually repeats but may differ in a detail not shown here. Equal values may be shown once. Inconclusive results and toxic doses are left out.

In this assay the test system is L1210 leukemia ip in BDF1 mice, survival T/C. The experiment in a line: NCI In Vivo Anticancer Drug Screen. Data for tumor model L1210 Leukemia (intraperitoneal) in B6D2F1 (BDF1) mice. The following applies: endpoint: mean survival time, higher = longer survival. An outline of the steps: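 Read-out is survival time, reported as the treated-group measurement over the vehicle-control measurement.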

Where [1] appears, read: dose: 100.0 mg/kg/injection, schedule: Q01DX009 (ip), vehicle: saline with Tween-80.
The mark [2] stands for this setting: dose: 200.0 mg/kg/injection, schedule: Q01DX009 (ip), vehicle: saline with Tween-80.
Where [3] appears, read: dose: 400.0 mg/kg/injection, schedule: Q01DX009 (ip), vehicle: saline with Tween-80.
The mark [4] stands for this setting: dose: 100.0 mg/kg/injection, schedule: Q01DX001 (ip), vehicle: Klucel (hydroxypropylcellulose) (HPC).
Where [5] appears, read: dose: 200.0 mg/kg/injection, schedule: Q01DX001 (ip), vehicle: Klucel (hydroxypropylcellulose) (HPC).
Where [6] appears, read: dose: 25.0 mg/kg/injection, schedule: Q01DX009 (ip), vehicle: saline.
The mark [7] stands for this setting: dose: 50.0 mg/kg/injection, schedule: Q01DX009 (ip), vehicle: saline.
Setting [8] is: dose: 100.0 mg/kg/injection, schedule: Q01DX009 (ip), vehicle: saline.
[9] abbreviates: dose: 50.0 mg/kg/injection, schedule: Q01DX009 (ip), vehicle: saline with Tween-80.
The mark [10] stands for this setting: dose: 100.0 mg/kg/injection, schedule: Q04DX003 (ip), vehicle: saline with Tween-80.
The mark [11] stands for this setting: dose: 200.0 mg/kg/injection, schedule: Q04DX003 (ip), vehicle: saline with Tween-80.
[12] abbreviates: dose: 400.0 mg/kg/injection, schedule: Q04DX003 (ip), vehicle: saline with Tween-80.
[13] abbreviates: dose: 100.0 mg/kg/injection, schedule: Q04DX003 (ip), vehicle: Klucel (hydroxypropylcellulose) (HPC).
Where [14] appears, read: dose: 200.0 mg/kg/injection, schedule: Q04DX003 (ip), vehicle: Klucel (hydroxypropylcellulose) (HPC).
Where [15] appears, read: dose: 400.0 mg/kg/injection, schedule: Q04DX003 (ip), vehicle: Klucel (hydroxypropylcellulose) (HPC).
Setting [16] is: dose: 100.0 mg/kg/injection, schedule: Q01DX001 (ip), vehicle: saline.
Setting [17] is: dose: 200.0 mg/kg/injection, schedule: Q01DX001 (ip), vehicle: saline.

Consider `Cc1ccc(S(=O)(=O)N2CCC(C(=O)O)(c3ccccc3)CC2)cc1`, for which the T/C is 117 % of control under setting [1], 101 % of control under setting [2] and 95 % of control under setting [3].

Consider `COC(=O)C(CCC(=O)OC(C)(C)C)NC(=O)C(F)(F)F` (centres undefined), for which the T/C is, setting by setting: (dose: 50.0 mg/kg/injection, schedule: Q01DX001 (ip), vehicle: Klucel (hydroxypropylcellulose) (HPC)) 94 % of control; under setting [4], 100 % of control; under setting [5], 97 % of control.

Consider `C=CCN(CC=C)CC=C`, for which the T/C under setting [6] is 100 % of control, the T/C under setting [7] is 97 % of control and the T/C under setting [8] is 100 % of control.

Take `N#[N+]c1c(C(=O)O)[nH]c(=O)[nH]c1=O`: the T/C by setting is: (dose: 6.25 mg/kg/injection, schedule: Q01DX009 (ip), vehicle: saline) 99 % of control; (dose: 10.0 mg/kg/injection, schedule: Q01DX001 (ip), vehicle: carboxymethylcellulose (CMC)) 92 % of control; (dose: 12.5 mg/kg/injection, schedule: Q01DX009 (ip), vehicle: saline with Tween-80) 98 % of control; (dose: 12.5 mg/kg/injection, schedule: Q01DX009 (ip), vehicle: saline) 96 % of control; (dose: 12.5 mg/kg/injection, schedule: Q01DX Z (ip), vehicle: methylcellulose (MC)) 94 % of control; (dose: 20.0 mg/kg/injection, schedule: Q01DX001 (ip), vehicle: carboxymethylcellulose (CMC)) 95 % of control. Further, the T/C (dose: 20.0 mg/kg/injection, schedule: Q01DX009 (ip), vehicle: carboxymethylcellulose (CMC)) is 96 % of control; the T/C (dose: 25.0 mg/kg/injection, schedule: Q01DX009 (ip), vehicle: saline with Tween-80) was 102 % of control; the T/C under setting [6] is 98 % of control; the T/C (dose: 25.0 mg/kg/injection, schedule: Q01DX Z (ip), vehicle: methylcellulose (MC)) is 101 % of control; the T/C (dose: 40.0 mg/kg/injection, schedule: Q01DX001 (ip), vehicle: carboxymethylcellulose (CMC)) is 104 % of control; the T/C (dose: 40.0 mg/kg/injection, schedule: Q01DX009 (ip), vehicle: carboxymethylcellulose (CMC)) was 108 % of control. Further, the T/C was 95 % of control and 92 % of control under setting [9]; 99 % of control under setting [7]; 155 % of control (dose: 50.0 mg/kg/injection, schedule: Q01DX Z (ip), vehicle: carboxymethylcellulose (CMC)); 121 % of control (dose: 50.0 mg/kg/injection, schedule: Q01DX Z (ip), vehicle: methylcellulose (MC)); 101 % of control (dose: 80.0 mg/kg/injection, schedule: Q01DX001 (ip), vehicle: carboxymethylcellulose (CMC)); 96 % of control (dose: 80.0 mg/kg/injection, schedule: Q01DX009 (ip), vehicle: carboxymethylcellulose (CMC)). Also, the T/C under setting [1] was 107 % of control and 92 % of control; the T/C under setting [8] was 103 % of control; the T/C (dose: 100.0 mg/kg/injection, schedule: Q01DX Z (ip), vehicle: methylcellulose (MC)) was 100 % of control; the T/C under setting [10] is 95 % of control; the T/C (dose: 150.0 mg/kg/injection, schedule: Q01DX009 (ip), vehicle: saline) is 90 % of control; the T/C under setting [2] was 97 % of control. Further, the T/C is 97 % of control under setting [11]; 101 % of control (dose: 300.0 mg/kg/injection, schedule: Q01DX009 (ip), vehicle: saline); 103 % of control under setting [12]; 97 % of control (dose: 800.0 mg/kg/injection, schedule: Q04DX003 (ip), vehicle: saline with Tween-80).

`CCOC(=O)C(C)(Br)C(Br)c1ccc([N+](=O)[O-])cc1` (centres undefined): the T/C was 96 % of control (dose: 100.0 mg/kg/injection, schedule: Q01DX009 (ip), vehicle: Klucel (hydroxypropylcellulose) (HPC)); 101 % of control under setting [13]; 93 % of control (dose: 200.0 mg/kg/injection, schedule: Q01DX009 (ip), vehicle: Klucel (hydroxypropylcellulose) (HPC)); 101 % of control under setting [14]; 98 % of control (dose: 400.0 mg/kg/injection, schedule: Q01DX009 (ip), vehicle: Klucel (hydroxypropylcellulose) (HPC)); 108 % of control under setting [15].

Turning to `c1ccc(CNc2ncn[nH]2)cc1`, the T/C is 95 % of control under setting [9], 103 % of control under setting [1] and 95 % of control under setting [2].

On to `O=C(/C=C\c1ccc(Cl)c(Cl)c1)/C=C/c1ccc(Cl)c(Cl)c1`, for which the T/C is 92 % of control (dose: 100.0 mg/kg/injection, schedule: Q04DX002 (ip), vehicle: saline with Tween-80) and 92 % of control (dose: 400.0 mg/kg/injection, schedule: Q04DX002 (ip), vehicle: saline with Tween-80).

As to `CCC(C)(C)C(=O)O`, the T/C by setting is: under setting [9], 104 % of control; under setting [1], 98 % of control; under setting [2], 98 % of control.

Take `Fc1c(F)c(Oc2c(F)c(F)c(C(F)(F)F)c(F)c2F)c(F)c(Oc2c(F)c(F)c(C(F)(F)F)c(F)c2F)c1F`: the T/C is 96 % of control under setting [4]; 98 % of control under setting [13]; 100 % of control under setting [5]; 95 % of control under setting [14]; 89 % of control (dose: 400.0 mg/kg/injection, schedule: Q01DX001 (ip), vehicle: Klucel (hydroxypropylcellulose) (HPC)); 97 % of control under setting [15].

With `O=CC(CO)C(C=O)n1ncc2ccccc21` (centres undefined), the T/C (dose: 50.0 mg/kg/injection, schedule: Q01DX005 (ip), vehicle: water) is 112 % of control.

For `C/C(CC(C)C)=N/O`, the T/C runs as follows: under setting [16], 95 % of control; under setting [17], 97 % of control; (dose: 400.0 mg/kg/injection, schedule: Q01DX001 (ip), vehicle: saline) 92 % of control.

As for `CNC(=S)n1cnc(N)n1`, the T/C (dose: 50.0 mg/kg/injection, schedule: Q01DX001 (ip), vehicle: saline) was 107 % of control; the T/C under setting [16] is 101 % of control; the T/C under setting [17] is 107 % of control.

In the case of `OC(/C(=C(/c1ccccc1)c1ccc(Cl)cc1)c1ccccc1)(c1ccccc1)c1ccccc1`, the T/C was 98 % of control under setting [1], 95 % of control under setting [2] and 98 % of control under setting [3].

As for `BrCCC[CH2][Pb]([c]1ccccc1)([c]1ccccc1)[c]1ccccc1`, the T/C reads like this: (dose: 50.0 mg/kg/injection, schedule: Q01DX001 (ip), vehicle: carboxymethylcellulose (CMC)) 102 % of control; (dose: 100.0 mg/kg/injection, schedule: Q01DX001 (ip), vehicle: carboxymethylcellulose (CMC)) 105 % of control; (dose: 200.0 mg/kg/injection, schedule: Q01DX001 (ip), vehicle: carboxymethylcellulose (CMC)) 111 % of control; (dose: 400.0 mg/kg/injection, schedule: Q01DX001 (ip), vehicle: carboxymethylcellulose (CMC)) 100 % of control.

In the case of `c1ccc([Si](c2ccccc2)(c2ccccc2)c2cccs2)cc1`, the T/C reads like this: under setting [10], 93 % of control; under setting [11], 90 % of control; under setting [12], 88 % of control.

Consider `CCC1(Br)OC1=O` (centres undefined), for which the T/C was 100 % of control (dose: 50.0 mg/kg/injection, schedule: Q01DX009 (ip), vehicle: acetone); 99 % of control (dose: 100.0 mg/kg/injection, schedule: Q01DX009 (ip), vehicle: acetone); 97 % of control (dose: 100.0 mg/kg/injection, schedule: Q04DX003 (ip), vehicle: acetone); 98 % of control (dose: 200.0 mg/kg/injection, schedule: Q04DX003 (ip), vehicle: acetone).

Take `CC(=O)NC1C(OC(C)=O)OC(COC(c2ccccc2)(c2ccccc2)c2ccccc2)C(OS(C)(=O)=O)C1OC(C)=O` (centres undefined): the T/C was 109 % of control (dose: 50.0 mg/kg/injection, schedule: Q04DX003 (ip), vehicle: saline with Tween-80); 109 % of control and 91 % of control under setting [10]; 121 % of control under setting [11]; 88 % of control under setting [12].

For the molecule `OCC1OC(n2cnc3c2ncn2nnnc32)C(O)C1O` (centres undefined), the T/C (dose: 100.0 mg/kg/injection, schedule: Q01DX005 (ip), vehicle: saline) is 100 % of control and the T/C (dose: 200.0 mg/kg/injection, schedule: Q01DX005 (ip), vehicle: saline) is 110 % of control.

These data come from PubChem BioAssay AID248 (DTP/NCI, 2004).
